The values below come from the NIST ThermoML archive (doi:10.1021/acs.jced.9b00381).

Numbers after ± are expanded uncertainties.

For data set [1] the following is noted: Crystal; DSC.
Data set [2] can be described thus: Molar enthalpy of transition or fusion. The conditions noted are these: Crystal; DSC.

On to `Fc1c(I)c(F)c(I)c(F)c1I` [1,3,5-trifluoro-2,4,6-triiodobenzene], for which the Triple point temperature in data set [1] amounted to 424.01 ± 1 K. Moreover, in data set [2], the “Molar enthalpy of transition or fusion” value was 3.23 ± 0.105 kcal/mol.
